Data on four molecules can be found in ChEMBL document CHEMBL1201862, “PubChem BioAssay data set” (2004).

Holding throughout (experiment): DTP human tumour cell line panel, 48 h
Assay [1] has as its system SF-539.
For assay [2], the system named is Hs-578T.
Assay [3] has as its system MDA-MB-231.
For assay [4], the system named is K562.
The subject of assay [5] is IGROV-1.
The test system of assay [6] is SF-268.
In assay [7] the test system is SF-295.
In assay [8] the test system is BT-549.
Assay [9] has as its system NCI-H522.
The test system of assay [10] is SW-620.
The subject of assay [11] is HT-29.
In assay [12] the test system is PC-3.
Assay [13] has as its system SN12C.
The subject of assay [14] is SK-MEL-28.
Assay [15] has as its system UO-31.
Assay [16] concerns NCI-H226.
For assay [17], the system named is KM12.
The test system of assay [18] is M14.
In assay [19] the test system is HL-60.
In assay [20] the test system is HOP-62.

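1) Cells in 96-well plates. 2) Compound, 48 h, 5 concentrations. 3) Linear interpolation between surrounding doses. 4) Unreached endpoint = highest concentration. Abbreviation: GI50, concentration required for 50% inhibition of growth.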 The source made the active and inactive calls. No stated cut-off is given here; in the data, active = GI50 up to about 1.1 µM and inactive = higher.

For `CN(O)C(=O)c1cccc(Cl)c1`, the GI50 – broadly, the concentration at which growth is held to half of that of the control – in assay [1] was > 100 µM (inactive); in assay [2], > 100 µM (inactive); in [3] it was > 100 µM (inactive); in [4] it was > 100 µM (inactive); in [5], 91.8 µM (inactive); in assay [6], > 100 µM (inactive). The GI50 in assay [7] is > 100 µM (inactive); in assay [8], > 100 µM (inactive); in [9], > 100 µM (inactive); in assay [10] it was > 100 µM (inactive); in assay [11], 70.6 µM (inactive); in assay [12], > 100 µM (inactive). Moreover, the GI50 in assay [13], in [14], in [15], in [16], in assay [17] and in assay [18] was > 100 µM (inactive) each time. The GI50 in [19] was 10.2 µM (inactive); in [20], > 100 µM (inactive).

Regarding `CCOC(=O)C1=CCOc2cc(N(C)C)ccc21`, the GI50 in [1] was > 100 µM (inactive); in [2] it was > 100 µM (inactive); in assay [3] it was > 100 µM (inactive); in [4] it was 26.9 µM (inactive); in assay [5], > 100 µM (inactive); in [6] it was 97.5 µM (inactive). The GI50 was > 100 µM (inactive) in assay [7]; > 100 µM (inactive) in [8]; 45.3 µM (inactive) in assay [9]; > 100 µM (inactive) in [10]; > 100 µM (inactive) in assay [11]; > 100 µM (inactive) in assay [12]. Moreover, the GI50 in assay [13], in assay [14], in assay [15], in assay [16], in assay [17] and in assay [18] was > 100 µM (inactive) in each case. Besides, the GI50 in assay [19] was 31.8 µM (inactive); in assay [20], > 100 µM (inactive).

With `COc1cc(NS(C)(=O)=O)ccc1NCc1c[nH]c2ccc3ncccc3c12`, the GI50 in assay [1] is 19.3 µM (inactive); in assay [2] it was 19.7 µM (inactive); in assay [3], 19.7 µM (inactive); in [4], 9.12 µM (inactive); in [5], 37.1 µM (inactive); in assay [6] it was 22.4 µM (inactive). Moreover, the GI50 in assay [7] was 18.5 µM (inactive); in assay [8] it was 18.9 µM (inactive); in assay [9], 14.2 µM (inactive); in [10] it was 26.1 µM (inactive); in [11], 23.2 µM (inactive); in assay [12], 19.4 µM (inactive). Also, the GI50 in [13] is 20.6 µM (inactive); in assay [14] it was 23.1 µM (inactive); in assay [15], 26.4 µM (inactive); in [16] it was 12.3 µM (inactive); in assay [17], 17.1 µM (inactive); in assay [18] it was 16.3 µM (inactive). Moreover, the 50% growth inhibitory concentration (GI50) in [19] was 0.871 µM (active); in assay [20] it was 22.2 µM (inactive).

Turning to `CCOC(=O)C12CCC(c3c(C)cccc3C)(O1)C(C(=O)OC)=C2C(=O)OC` (stereo not given), the GI50 in [1] was 2.11 µM (inactive); in assay [2], 3.52 µM (inactive); in [3] it was 5.07 µM (inactive); in assay [4], 3.62 µM (inactive); in assay [5], 3.6 µM (inactive); in [6], > 6.89 µM (inactive). The GI50 in [7] was 5.45 µM (inactive); in assay [8], 4 µM (inactive); in assay [9] it was 5.38 µM (inactive); in assay [10], 2.07 µM (inactive); in assay [11], 0.748 µM (active); in assay [12] it was 2.09 µM (inactive). Besides, the GI50 was > 6.75 µM (inactive) in assay [13]; > 7.5 µM (inactive) in assay [14]; > 10 µM (inactive) in assay [15]; 5.52 µM (inactive) in assay [16]; 4.28 µM (inactive) in assay [17]; 2.69 µM (inactive) in assay [18]. The GI50 in assay [19] is 1.82 µM (inactive); in [20] it was 4.11 µM (inactive).
